This assay deals with human TRPA1 (Homo sapiens (Human), UniProt O75762). As to the kind of experiment: hTRPA1 CHO Ca2+ AUC EVO (IC50); FLIPR Tetra block of cinnamaldehyde induced calcium influx. The assay is classed as cell-based. Particulars: CHO cells expressing TRPA1, 75 uM cinnamaldehyde agonist. The protocol: IC50 values ([…]) of compounds on the human and rat TRPA1 channels were determined using a FLIPR Tetra instrument. CHO cells expressing TRPA1 were plated into 384-well plates, incubated overnight at 37 C, and loaded with BD calcium indicator dye for 1 hr at 37° C. followed by 15 minutes. at room temperature. The assay buffer was Hank's Balanced Salt Solution (HBSS) containing 20 mM HEPES (pH readjusted to 7.4) along with 0.02% BSA.
Sequence of human TRPA1 (O75762 whole entry): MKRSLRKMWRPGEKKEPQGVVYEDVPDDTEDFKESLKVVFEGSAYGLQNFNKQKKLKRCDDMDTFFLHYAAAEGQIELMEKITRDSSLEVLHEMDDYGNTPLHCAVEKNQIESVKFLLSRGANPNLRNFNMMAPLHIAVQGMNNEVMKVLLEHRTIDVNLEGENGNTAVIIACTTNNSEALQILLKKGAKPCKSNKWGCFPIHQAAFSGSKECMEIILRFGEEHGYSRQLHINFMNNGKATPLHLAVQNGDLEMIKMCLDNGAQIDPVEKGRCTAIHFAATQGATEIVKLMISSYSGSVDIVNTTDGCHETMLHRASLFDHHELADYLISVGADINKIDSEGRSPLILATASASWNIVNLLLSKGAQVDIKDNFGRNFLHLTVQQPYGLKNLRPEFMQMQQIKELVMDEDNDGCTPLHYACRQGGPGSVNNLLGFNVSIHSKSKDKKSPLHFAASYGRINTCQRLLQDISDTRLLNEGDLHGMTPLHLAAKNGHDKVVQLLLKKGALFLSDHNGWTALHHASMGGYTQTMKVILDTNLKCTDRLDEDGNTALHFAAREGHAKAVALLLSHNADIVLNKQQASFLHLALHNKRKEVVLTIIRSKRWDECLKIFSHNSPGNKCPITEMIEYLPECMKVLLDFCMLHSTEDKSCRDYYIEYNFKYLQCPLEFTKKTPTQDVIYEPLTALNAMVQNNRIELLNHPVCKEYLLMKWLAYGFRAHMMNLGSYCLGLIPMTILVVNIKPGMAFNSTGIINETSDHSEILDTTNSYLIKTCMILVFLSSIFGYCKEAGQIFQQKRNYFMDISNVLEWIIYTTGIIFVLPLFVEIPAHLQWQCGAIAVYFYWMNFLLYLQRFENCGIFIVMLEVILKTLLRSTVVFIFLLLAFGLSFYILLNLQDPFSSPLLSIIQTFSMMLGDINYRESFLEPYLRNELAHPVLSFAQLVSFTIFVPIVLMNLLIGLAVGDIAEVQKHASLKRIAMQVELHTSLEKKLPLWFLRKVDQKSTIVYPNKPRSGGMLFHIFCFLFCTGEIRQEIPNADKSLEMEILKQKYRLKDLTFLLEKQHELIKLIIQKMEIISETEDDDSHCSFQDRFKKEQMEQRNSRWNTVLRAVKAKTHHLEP
Following dye load and plate cool down, compounds were added to the cells using FLIPR Tetra. Plates were then incubated with compounds for 20 minutes at room temperature prior to adding agonist. Following this incubation, ˜EC80 concentration of cinnamaldehyde (75 uM for human TRPA1 and 45 uM for rat TRPA1) was added to active the channels and block of cinnamaldehyde induced calcium influx was measured.
IC50 values were fit with a standard Hill function, keeping the Hill coefficient (n) fixed to 1.5. Fixing the Hill coefficient will generally reduce variability of the IC50 determination. The IC50 values were individually examined to make sure the MIN and MAX points were set correctly prior to validation of the results.

SMILES strings stand for the structures.

The IC50 is the concentration at which inhibition is half-maximal. Turning to `O=C(Cc1cn(-c2cnc(C(F)(F)F)nc2)nc1C(F)(F)F)N[C@@H]1CC[C@@H]1S(=O)(=O)c1ccc(F)cc1` [Example 3, N-((1R,2S)-2-(4-fluorophenylsulfonyl)cyclobutyl)-2-(3-(trifluoromethyl)-1-(2-(trifluoromethyl)pyrimidin-5-yl)-1H-pyrazol-4-yl)acetamide], the IC50 runs as follows: (Table 1) 0.00788 µM; (Table 3) 0.00788 µM.
Take `O=C(NCc1cn(-c2ccc(C(F)(F)F)nc2)nc1C(F)(F)F)[C@@H]1CCC[C@@H]1S(=O)(=O)c1ccc(F)cc1` [Example 4, (1S,2S)-2-[(4-fluorobenzene)sulfonyl]-N-[[3-(trifluoromethyl)-1-[6-(trifluoromethyl)pyridin-3-yl]-1H-pyrazol-4-yl]methyl]cyclopentane-1-carboxamide]: the IC50 (Table 3) worked out at 0.0218 µM.
For the molecule `O=C(Cc1cn(-c2cnc(C(F)(F)F)nc2)nc1C1CC1)N[C@@H]1CC[C@@H]1S(=O)(=O)c1ccc(F)cc1` [Example 6, 2-(3-cyclopropyl-1-(2-(trifluoromethyl)pyrimidin-5-yl)-1H-pyrazol-4-yl)-N-((1R,2S)-2-(4-fluorophenylsulfonyl)cyclobutyl)acetamide], the IC50 reads like this: (Table 1) 0.0469 µM; (Table 3) 0.0469 µM.
Turning to `O=C(Cc1cn(-c2cnc(C(F)(F)F)nc2)nc1Cl)N[C@@H]1CC[C@@H]1S(=O)(=O)c1ccc(F)cc1` [Example 7, 2-(3-chloro-1-(2-(trifluoromethyl)pyrimidin-5-yl)-1H-pyrazol-4-yl)-N-((1R,2S)-2-(4-fluorophenylsulfonyl)cyclobutyl) acetamide], the IC50 by setting is: (Table 1) 0.0403 µM; (Table 3) 0.0403 µM.
`O=C(Cc1cn(-c2cnc(C(F)(F)F)nc2)nc1C(F)F)N[C@@H]1CC[C@@H]1S(=O)(=O)c1ccc(F)cc1` [Example 9, 2-(3-(difluoromethyl)-1-(2-(trifluoromethyl)pyrimidin-5-yl)-1H-pyrazol-4-yl)-N-((1R,2S)-2-(4-fluorophenylsulfonyl)cyclobutyl)acetamide]: the IC50 runs as follows: (Table 1) 0.0352 µM; (Table 3) 0.0352 µM.
Take `COc1nn(-c2ccc(C(F)F)cc2)cc1CC(=O)N[C@@H]1CC[C@@H]1S(=O)(=O)c1ccc(F)cc1` [Example 10, 2-(1-(4-(difluoromethyl)phenyl)-3-methoxy-1H-pyrazol-4-yl)-N-((1R,2S)-2-(4-fluorophenylsulfonyl)cyclobutyl) acetamide]: the IC50 (Table 3) stood at 0.0436 µM.
Take `COc1nn(-c2ccc(C(F)(F)F)nc2)cc1CC(=O)N[C@@H]1CC[C@@H]1S(=O)(=O)c1ccc(F)cc1` [Example 13, N-((1R,2S)-2-((4-fluorophenyl)sulfonyl)cyclobutyl)-2-(3-methoxy-1-(6-(trifluoromethyl)pyridin-3-yl)-1H-pyrazol-4-yl)acetamide]: the IC50 came out at 0.0185 µM (Table 1) and 0.0185 µM (Table 3).
For the molecule `COc1nn(-c2ccc(C(F)(F)F)cc2)cc1CC(=O)N[C@@H]1CC[C@@H]1S(=O)(=O)c1ccc(F)cc1` [Example 14, N-((1R,2S)-2-((4-fluorophenyl)sulfonyl)cyclobutyl)-2-(3-methoxy-1-(4-(trifluoromethyl)phenyl)-1H-pyrazol-4-yl)acetamide], the IC50 was 0.0052 µM (Table 1) and 0.0052 µM (Table 3).
On to `O=C(NCc1cc(-c2ccc(C(F)(F)F)nc2)ncc1Cl)[C@@H]1CC[C@@H]1S(=O)(=O)c1ccc(F)cc1` [Example 15], for which the IC50 (Table 3) amounted to 0.14 µM.
Same read-out and setting: in the case of `O=C(NCc1cn(-c2cnc(C(F)(F)F)nc2)nc1C(F)F)[C@@H]1CC[C@@H]1S(=O)(=O)c1ccc(F)cc1` [Example 16, (1S,2S)-N-((3-(difluoromethyl)-1-(2-(trifluoromethyl)pyrimidin-5-yl)-1H-pyrazol-4-yl)methyl)-2-(4-fluorophenylsulfonyl) cyclobutanecarboxamide] it was 0.162 µM; in that of `O=C(NCc1cn(-c2ccc(C(F)(F)F)cc2)nc1C(F)F)[C@@H]1CC[C@@H]1S(=O)(=O)c1ccc(F)cc1` [Example 17, (1S,2S)-N-((3-(difluoromethyl)-1-(4-(trifluoromethyl)phenyl)-1H-pyrazol-4-yl)methyl)-2-(4-fluorophenylsulfonyl) cyclobutanecarboxamide], 0.0242 µM; in that of `O=C(NCc1ccc(F)c(-c2cnc(C(F)(F)F)nc2)c1)[C@@H]1CC[C@@H]1S(=O)(=O)c1ccc(F)cc1` [Example 19, (1S,2S)-2-(4-fluorophenyl)sulfonyl-N-[[4-fluoro-3-[2-(trifluoromethyl)pyrimidin-5-yl]phenyl]methyl] cyclobutanecarboxamide], 0.159 µM.
With `O=C(NCc1cn(-c2ccc(C(F)(F)F)nc2)nc1C(F)F)[C@@H]1CC[C@@H]1S(=O)(=O)c1ccc(F)cc1` [Example 20, (1S,2S)-N-((3-(difluoromethyl)-1-(6-(trifluoromethyl)pyridin-3-yl)-1H-pyrazol-4-yl)methyl)-2-((4-fluorophenyl)sulfonyl) cyclobutanecarboxamide], the IC50 (Table 3) worked out at 0.0984 µM.
Same read-out and setting: as for `O=C(NCc1cc(-c2cccc(C(F)(F)F)c2)ncn1)[C@@H]1CC[C@@H]1S(=O)(=O)c1ccc(F)cc1` [Example 21, (1S,2S)-2-((4-fluorophenyl)sulfonyl)-N-((6-(3-(trifluoromethyl)phenyl)pyrimidin-4-yl)methyl)cyclobutanecarboxamide], the figure is 0.386 µM.
Turning to `O=C(NCc1cn(-c2ccc(C(F)(F)F)nc2)nc1C(F)(F)F)[C@@H]1CC[C@@H]1S(=O)(=O)c1ccc(F)cc1` [Example 24, (1S,2S)-2-(4-fluorophenylsulfonyl)-N-((3-(trifluoromethyl)-1-(6-(trifluoromethyl)pyridin-3-yl)-1H-pyrazol-4-yl)methyl)cyclobutanecarboxamide], the IC50 by setting is: (Table 1) 0.0415 µM; (Table 3) 0.0415 µM.
As for `O=C(NCc1cc(-c2ccc(C(F)(F)F)cc2)ncn1)[C@@H]1CC[C@@H]1S(=O)(=O)c1ccc(F)cc1` [Example 27, (1S,2S)-2-(4-fluorophenylsulfonyl)-N-((6-(4-(trifluoromethyl)phenyl)pyrimidin-4-yl)methyl)cyclobutanecarboxamide], the IC50 (Table 3) was 0.113 µM.
`O=C(NCc1cn(-c2ccc(C(F)(F)F)cc2)nc1Cl)[C@@H]1CC[C@@H]1S(=O)(=O)c1ccc(F)cc1` [Example 28, (1S,2S)-N-((3-chloro-1-(4-(trifluoromethyl)phenyl)-1H-pyrazol-4-yl)methyl)-2-(4-fluorophenylsulfonyl) cyclobutanecarboxamide]: the concentration for half-maximal inhibition (IC50) (Table 1) turned out to be 0.0194 µM and the IC50 (Table 3) amounted to 0.0194 µM.
With `COc1nn(-c2ccc(C(F)(F)F)nc2)cc1CNC(=O)[C@@H]1CCC[C@@H]1S(=O)(=O)c1ccc(F)cc1` [Example 40, (1S,2S)-2-(4-fluorophenylsulfonyl)-N-((3-methoxy-1-(6-(trifluoromethyl)pyridin-3-yl)-1H-pyrazol-4-yl)methyl) cyclopentanecarboxamide], where the note is “Table 3”, the IC50 came to 0.159 µM.
`O=C(NCc1cn(-c2ccc(C(F)(F)F)nc2)nc1C(F)(F)F)[C@@H]1CCC[C@@H]1S(=O)(=O)c1ccc(F)cc1` [Example 41, (1S,2S)-2-[(4-fluorobenzene)sulfonyl]-N-[[3-(trifluoromethyl)-1-[6-(trifluoromethyl)pyridin-3-yl]-1H-pyrazol-4-yl]methyl]cyclopentane-1-carboxamide]: the IC50 (Table 3) turned out to be 0.0404 µM.
Consider `O=C(NCc1cn(-c2ccc(C(F)(F)F)cc2)nc1Cl)[C@@H]1CCC[C@@H]1S(=O)(=O)c1ccc(F)cc1` [Example 43, (1S,2S)-N-((3-chloro-1-(4-(trifluoromethyl)phenyl)-1H-pyrazol-4-yl)methyl)-2-(4-fluorophenylsulfonyl) cyclopentanecarboxamide], for which the IC50 is, setting by setting: (Table 1) 0.0389 µM; (Table 3) 0.0389 µM.

These data come from US10766878B2, “Sulfonylcycloalkyl carboxamide compounds” (Genentech, Inc., priority 2017, dated 2020).
